Reference: article PMC7948497, “Iron uptake mediated by the plant-derived chelator nicotianamine in the small intestine” (The Journal of Biological Chemistry, 2020)

Biological target: T1, hPAT1 (SLC36A1) (Homo sapiens, UniProt Q7Z2H8)
T1 construct: full open reading frame amplified from human small intestine RNA, pTNT vector, cRNA injected into Xenopus laevis oocytes; 476 residues, about 53 kDa
Assay: two-electrode voltage clamp of Xenopus oocytes, substrate-induced current; inhibition of NA-Fe(II)-elicited current
Format: cell-based
Settings: pH 6.0, -60 mV; 0.5 mM NA-Fe(II) (figure legend; Methods say 1 mM)

T1 sequence (Q7Z2H8 whole entry): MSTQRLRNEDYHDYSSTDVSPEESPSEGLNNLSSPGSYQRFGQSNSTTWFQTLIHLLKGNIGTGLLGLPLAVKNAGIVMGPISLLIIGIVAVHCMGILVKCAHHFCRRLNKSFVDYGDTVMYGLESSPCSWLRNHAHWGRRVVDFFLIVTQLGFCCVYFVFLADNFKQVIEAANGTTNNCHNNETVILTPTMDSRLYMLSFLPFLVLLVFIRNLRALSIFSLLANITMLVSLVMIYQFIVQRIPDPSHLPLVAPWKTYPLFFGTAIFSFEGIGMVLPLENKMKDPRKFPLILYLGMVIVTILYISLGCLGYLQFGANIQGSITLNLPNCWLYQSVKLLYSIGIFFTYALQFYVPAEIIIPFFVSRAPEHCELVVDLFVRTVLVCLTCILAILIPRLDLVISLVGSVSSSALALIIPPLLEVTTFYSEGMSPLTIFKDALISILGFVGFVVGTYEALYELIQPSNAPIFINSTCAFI

SMILES: N[C@@H](Cc1c[nH]c2ccc(O)cc12)C(=O)O [5-hydroxytryptophan]
- % of original current remaining at 5 mM: 30.1%
